Experimental data from patent publication US7745402B2, “Method of treating pancreatitis” (Lundbeck Inc., priority 2005, dated 2010).

Experiments:
[1] = test system: caerulein-induced pancreatitis; assay: Caerulein-induced pancreatitis and its pulmonary complications after hemin pretreatment; type: in vivo, Balb/c mice; conditions: hemin 3× every other day, then caerulein hourly 7×; 12 h
Method: (A,B) Mice were injected intraperitoneally with hemin (H) or vehicle (V; 7 mice/group) every other day (3×; arrows) followed by injection with either saline (Sal) or caerulein (Cae) hourly (7×; arrows) and then harvesting of the pancreata and lungs at 12 h after first Sal or Cae injection. Sera were collected for amylase/lipase measurement. (C-E) Pancreatic and lung tissues (from panels A,B) were used to determine trypsin (pmol/mg protein) and myeloperoxidase (MPO; ng/mg wet tissue) enzyme activities and to assess extent of tissue injury. Data are presented as mean±SD. A representative hematoxylin and eosin staining of lung is shown (scale bar=50 μM).
Mice and pancreatitis models. Experiments and animal care were performed according to approved institutional guidelines. […]
Animal procedures. […] Immunofluorescence staining was performed as described (29) and images were analyzed using confocal microscopy. Total tissue lysates were prepared by homogenization in Laemmli sample buffer and analyzed by SDS-PAGE followed by transfer to membranes for blotting and protein visualization by enhanced chemiluminescence. Trypsin activity was determined using a fluorimetric assay and the substrate Boc-Gln-Ala-Arg-MCA (Peptides International Inc.; Louisville, Ky.), and comparison to a standard curve generated with purified trypsin as described. […]

MIP-2 = assay: Real-time RT-PCR of pancreatic chemokine mRNA after hemin; type: in vivo, mice; conditions: pancreas 24 h after one intraperitoneal injection
Method: (§1) FIG. 3: Hemin increases HO-1^+ pancreatic macrophages in association with MCP-1 and MIP-1α induction. (A) Pancreas from CDD-fed mice was triple-stained using antibodies to HO-1 (a), the macrophage marker F4/80 (b), and the granulocyte marker Gr-1 (c). Scale bar in panel d=[…]. (B) Mice were treated intraperitoneally with hemin (H) or vehicle (V) once (H×1) or 3×(H×3, V×3) during a one week period, followed by feeding with CDD or regular chow for 3 d. Pancreata were collected followed by staining and counting F4/80^+ macrophages in 10 randomly selected high power fields (HPF). The mean±SD (3 mice/group) and p-value for the indicated comparisons are shown. (C) Hemin (H) or vehicle (V) were injected intraperitoneally once followed by harvesting of pancreata after 24 h. A non-injected control “C” group was also included. mRNA levels were then estimated from pancreata of 3 mice/group as a ratio of the indicated chemokine to β-actin (mean±SD).
(§2) Real-time reverse transcription (RT)-PCR. Total RNA was isolated from pancreatic tissue using a commercial kit (TEL-TEST; Friendswood, Tex.). First strand cDNA was synthesized using oligo-dT primers and SuperScript II reverse transcriptase (Invitrogen; Carlsbad, Calif.). Real-time quantitative PCR was performed with an ABI Prism 7900 Sequence Detection System (PE Biosystems; Foster City, Calif.) and established primers for MCP-1, MIP-1α, MIP-2, RANTES, and β-actin. Zhong, B., et al., J. Cell Sci. 117:1709-1719; Zhang, Y., McCormick, L. L., Desai, S. R., Wu, C., and Gilliam, A. C. 2002. Murine sclerodermatous graft-versus-host disease, a model for human scleroderma: cutaneous cytokines, chemokines, and immune cell activation. J. Immunol. 168:3088-3098; Walzog, B., Weinmann, P., Jeblonski, F., Scharffetter-Kochanek, K., Bommert, K., and Gaehtgens, P. 1999. A role for beta(2) integrins (CD11/CD18) in the regulation of cytokine20 gene expression of polymorphonuclear neutrophils during the inflammatory response. FASEB J. 13:1855-1865. Primers to β-actin were used as an internal control reference, and the amount of specific cytokine relative to actin transcript was determined and reported as mean±SD.

MIP-1α = assay: as above; type: in vivo, mice; conditions: pancreas 24 h after one intraperitoneal injection
Method: as §1, §2

MCP-1 = assay: as above; type: in vivo, mice; conditions: pancreas 24 h after one intraperitoneal injection
Method: as §1, §2

RANTES = assay: as above; type: in vivo, mice; conditions: pancreas 24 h after one intraperitoneal injection
Method: as §1, §2

Substance: Hemin
- lung histology (hemorrhage, alveolar collapse) [1]: marked hemorrhage and alveolar collapse in vehicle (a) compared to hemin (b) pretreated mice
- change in MIP-2 mRNA level (MIP-2): not significant
- MIP-1α mRNA (ratio to β-actin) (MIP-1α): induction
- MCP-1 mRNA (ratio to β-actin) (MCP-1): induction
- change in RANTES mRNA level (RANTES): not significant
